Assay [1] addresses T1, SMYD3 (Homo sapiens (Human), UniProt Q9H7B4). Kind of assay: SMYD3 biochemical assay (SPA, 3H-SAM methylation of MEKK2 protein substrate). Particulars: read-out: SMYD3 Biochem IC50*. Put shortly: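 Enzyme: untagged full-length human SMYD3 from E. coli; substrate GST-tagged MEKK2 from insect cells. Buffer 25 mM Tris-Cl pH 8.0, 1 mM TCEP, 0.005% BSG/Tween 20. 30 min compound–enzyme preincubation at RT; 3H-SAM/MEKK2 start; stop with cold SAM (100 uM final); SPA readout in cpm.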

The target in assay [2] is T1, SMYD3. Put plainly: SMYD3 cell assay (Trimethyl-MEKK2 In-Cell Western in 293T/17 cells). It is filed as cell-based. As to conditions: read-out: SMYD3 Cell IC50*. The procedure, abridged: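 In-Cell Western readout: methanol-fixed cells stained for trimethyl-MEKK2 and flag tag, ratio per well normalized to DMSO and background controls.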

Structures are written as SMILES.

T1 sequence (Q9H7B4 whole entry): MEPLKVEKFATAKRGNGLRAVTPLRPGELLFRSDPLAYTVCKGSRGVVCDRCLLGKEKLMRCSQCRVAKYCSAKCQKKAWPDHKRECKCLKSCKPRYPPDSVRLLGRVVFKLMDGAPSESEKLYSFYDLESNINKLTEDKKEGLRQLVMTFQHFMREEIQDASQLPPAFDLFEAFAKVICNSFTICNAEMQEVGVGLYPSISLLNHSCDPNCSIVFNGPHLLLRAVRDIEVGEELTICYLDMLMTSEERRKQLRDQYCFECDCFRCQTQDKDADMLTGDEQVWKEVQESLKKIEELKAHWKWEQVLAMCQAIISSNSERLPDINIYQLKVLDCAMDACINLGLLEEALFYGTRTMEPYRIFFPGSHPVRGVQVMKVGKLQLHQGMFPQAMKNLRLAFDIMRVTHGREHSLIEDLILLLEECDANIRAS

By IC50 is commonly meant the midpoint of a concentration-inhibition curve. Turning to `C[C@H]1C[C@@H](NC(=O)c2cc(C3CC3)on2)CCN1S(=O)(=O)C[C@H]1CCC[C@H](N)C1` [compound 836, N-((2S,4S)-1-((((1S,3S)-3-aminocyclohexyl)methyl)sulfonyl)-2-methylpiperidin-4-yl)-5-cyclopropylisoxazole-3-carboxamide], the values for the IC50 in assay [1] and in assay [2] were 4.64 nM and 89 nM, respectively.

As for `C[C@H]1CN(S(=O)(=O)[C@H]2CC[C@H](N(C)C)CC2)CC[C@H]1NC(=O)c1cc(C2CC2)on1` [compound 837, 5-cyclopropyl-N-((3S,4R)-1-(((1r,4S)-4-(dimethylamino)cyclohexyl)sulfonyl)-3-methylpiperidin-4-yl)isoxazole-3-carboxamide], the IC50 stood at 4.82 nM in assay [1] and 84.4 nM in assay [2].

Consider `CN(CCCC(F)(F)F)C1CCN(S(=O)(=O)N2[C@@H]3CC[C@H]2C[C@@H](NC(=O)c2cc(C4CC4)on2)C3)CC1` [compound 838, 5-cyclopropyl-N-((1R,3r,5S)-8-((4-(methyl(4,4,4-trifluorobutyl)amino)piperidin-1-yl)sulfonyl)-8-azabicyclo[3.2.1]octan-3-yl)isoxazole-3-carboxamide], for which the IC50 is 4.9 nM in assay [1] and 52.4 nM in assay [2].

For `C[C@H]1C[C@@H](NC(=O)c2cc(C3CC3)on2)CCN1S(=O)(=O)N1CCC(N(C)Cc2ccccc2)CC1` [compound 839, N-((2S,4S)-1-((4-(benzyl(methyl)amino)piperidin-1-yl)sulfonyl)-2-methylpiperidin-4-yl)-5-cyclopropylisoxazole-3-carboxamide], the IC50 in assay [1] was found to be 4.97 nM; in assay [2], 154 nM.

Take `O=C(N[C@H]1C[C@H]2CC[C@@H](C1)N2S(=O)(=O)N1CC2CC1CN2)c1cc(C2CC2)on1` [compound 840, N-((1R,3r,5S)-8-((2,5-diazabicyclo[2.2.1]heptan-2-yl)sulfonyl)-8-azabicyclo[3.2.1]octan-3-yl)-5-cyclopropylisoxazole-3-carboxamide]: the IC50 came out at 5.01 nM in assay [1] and 56 nM in assay [2].

`C[C@H]1C[C@@H](NC(=O)c2cc(C3CC3)on2)CCN1S(=O)(=O)CC[C@@H]1CCNC1` [compound 841, 5-cyclopropyl-N-((2S,4S)-2-methyl-1-((2-((S)-pyrrolidin-3-yl)ethyl)sulfonyl)piperidin-4-yl)isoxazole-3-carboxamide]: the IC50 came out at 5.05 nM in assay [1] and 124 nM in assay [2].

`C[C@H](C1CCNCC1)S(=O)(=O)N1[C@@H]2CC[C@H]1C[C@@H](NC(=O)c1cc(C3CC3)on1)C2` [compound 842, 5-cyclopropyl-N-((1R,3R,5S)-8-(((R)-1-(piperidin-4-yl)ethyl)sulfonyl)-8-azabicyclo[3.2.1]octan-3-yl)isoxazole-3-carboxamide]: the IC50 stood at 5.1 nM in assay [1] and 29 nM in assay [2].

Regarding `CC(C)CNC1CCN(S(=O)(=O)N2CC[C@H](NC(=O)c3cc(C4CC4)on3)C[C@@H]2C)CC1` [compound 843, 5-cyclopropyl-N-((2S,4S)-1-((4-(isobutylamino)piperidin-1-yl)sulfonyl)-2-methylpiperidin-4-yl)isoxazole-3-carboxamide], the half-maximal inhibitory concentration (IC50) in assay [1] worked out at 5.11 nM; in assay [2], 77.7 nM.

Consider `CN(CCc1ccccc1)C1CCN(S(=O)(=O)N2[C@@H]3CC[C@H]2C[C@@H](NC(=O)c2cc(C4CC4)on2)C3)CC1` [compound 844, 5-cyclopropyl-N-((1R,3r,5S)-8-((4-(methyl(phenethyl)amino)piperidin-1-yl)sulfonyl)-8-azabicyclo[3.2.1]octan-3-yl)isoxazole-3-carboxamide], for which the IC50 in assay [1] came to 5.28 nM; in assay [2], 305 nM.

Take `O=C(N[C@H]1C[C@H]2CC[C@@H](C1)N2S(=O)(=O)N1CCC(NCCCO)CC1)c1cc(C2CC2)on1` [compound 845, 5-cyclopropyl-N-((1R,3r,5S)-8-((4-((3-hydroxypropyl)amino)piperidin-1-yl)sulfonyl)-8-azabicyclo[3.2.1]octan-3-yl)isoxazole-3-carboxamide]: the IC50 in assay [1] is 5.3 nM; in assay [2], 86.3 nM.

Values taken from patent publication US10577363B2, “Substituted piperidine compounds” (EPIZYME, INC., priority 2014, dated 2020).
